Reference: patent US9290451B2 (Hoffmann-La Roche Inc., priority 2011, dated 2016)

What was measured:
[1] = target: human CB1 receptors (Homo sapiens (Human), UniProt P21554); experiment: cAMP assay, CHO cells expressing human CB1 receptors; format: cell-based; conditions: CHO cells expressing human CB1, cAMP; read-out: human CB1 EC50
In short: (§1)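 Whole CHO cells were preincubated in Krebs Ringer bicarbonate buffer with 1 mM IBMX for 30 min at 30 °C, then exposed to compounds for 30 min at 30 °C. cAMP was quantified by time-resolved FRET (cAMP-Nano-TRF) against a standard curve, and EC50 values were derived.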

[2] = target: human CB2 receptors (Homo sapiens (Human), UniProt P34972); experiment: cAMP assay, CHO cells expressing human CB2 receptors; format: cell-based; conditions: CHO cells expressing human CB2, cAMP; read-out: human CB2 EC50
In short: as §1

human CB2 receptors, sequence (P34972 whole entry): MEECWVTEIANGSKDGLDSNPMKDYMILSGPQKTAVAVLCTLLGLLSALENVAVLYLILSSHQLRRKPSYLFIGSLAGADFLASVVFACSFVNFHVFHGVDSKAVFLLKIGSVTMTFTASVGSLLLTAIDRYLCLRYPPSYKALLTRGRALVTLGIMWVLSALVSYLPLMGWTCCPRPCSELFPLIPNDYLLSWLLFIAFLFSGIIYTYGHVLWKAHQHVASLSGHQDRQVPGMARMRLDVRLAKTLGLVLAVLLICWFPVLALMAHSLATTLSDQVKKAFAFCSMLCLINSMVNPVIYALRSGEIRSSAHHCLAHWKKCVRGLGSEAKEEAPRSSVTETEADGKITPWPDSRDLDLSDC
human CB1 receptors, sequence (P21554 whole entry): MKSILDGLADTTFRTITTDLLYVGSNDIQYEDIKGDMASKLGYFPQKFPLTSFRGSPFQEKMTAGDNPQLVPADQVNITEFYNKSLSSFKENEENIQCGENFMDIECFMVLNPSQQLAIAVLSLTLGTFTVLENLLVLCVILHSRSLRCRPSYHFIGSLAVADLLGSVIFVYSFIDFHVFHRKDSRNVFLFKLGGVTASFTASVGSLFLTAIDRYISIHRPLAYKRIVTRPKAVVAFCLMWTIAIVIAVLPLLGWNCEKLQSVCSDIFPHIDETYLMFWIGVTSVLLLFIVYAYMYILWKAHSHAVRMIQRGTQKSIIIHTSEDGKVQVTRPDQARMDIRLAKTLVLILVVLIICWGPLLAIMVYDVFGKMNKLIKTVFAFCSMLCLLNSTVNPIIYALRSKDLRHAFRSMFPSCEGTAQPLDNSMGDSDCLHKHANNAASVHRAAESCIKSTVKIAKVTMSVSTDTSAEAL

Compound	EC50 [1] [nM]	EC50 [2] [nM]
CC(C)C[C@H](NC(=O)c1ccc(N2CC(F)(F)C2)c(-c2cccc(Cl)c2)n1)C(N)=O [Example 140, 6-(3-Chloro-phenyl)-5-(3,3-difluoro-azetidin-1-yl)-pyridine-2-carboxylic acid ((S)-1-carbamoyl-3-methyl-butyl)-amide]	> 10000	305
CC(C)(CO)NC(=O)c1ccc(C2CCOC2)c(OCC2CC2)n1 (centres unmarked) [Example 141, 6-Cyclopropylmethoxy-5-(tetrahydro-furan-3-yl)-pyridine-2-carboxylic acid (2-hydroxy-1,1-dimethyl-ethyl)-amide]	> 10000	459
COCCOc1nc(C(=O)N[C@@H](CC(C)C)C(N)=O)ccc1C1CC1 [Example 142, 5-Cyclopropyl-6-(2-methoxy-ethoxy)-pyridine-2-carboxylic acid ((S)-1-carbamoyl-3-methyl-butyl)-amide]	> 10000	14.4
CC1(C)CCc2ccc(C(=O)NC[C@](C)(O)C3CC3)nc2C1 [Example 143, 7,7-Dimethyl-5,6,7,8-tetrahydro-quinoline-2-carboxylic acid ((R)-2-cyclopropyl-2-hydroxy-propyl)-amide]	> 10000	410
Cc1nc(C(C)(C)NC(=O)c2ccc3c(n2)CC(C)(C)CC3)no1 [Example 144, 7,7-dimethyl-N-(2-(5-methyl-1,2,4-oxadiazol-3-yl)propan-2-yl)-5,6,7,8-tetrahydroquinoline-2-carboxamide]	739	22.8
CC1(C)CCc2ccc(C(=O)NC(C)(C)CO)nc2C1 [Example 145, N-(1-hydroxy-2-methylpropan-2-yl)-7,7-dimethyl-5,6,7,8-tetrahydroquinoline-2-carboxamide]	> 10000	289
O=C(N[C@@H](CC1CC1)c1nccs1)c1ccc(N2CC(F)(F)C2)c(OCC2CC2)n1 [Example 146, 6-Cyclopropylmethoxy-5-(3,3-difluoro-azetidin-1-yl)-pyridine-2-carboxylic acid ((S)-2-cyclopropyl-1-thiazol-2-yl-ethyl)-amide]	> 10000	36.6
O=C(NCc1ccccn1)c1ccc(N2CC(F)(F)C2)c(OCC2CC2)n1 [Example 147, 6-Cyclopropylmethoxy-5-(3,3-difluoro-azetidin-1-yl)-pyridine-2-carboxylic acid (pyridin-2-ylmethyl)-amide]	> 10000	922
O=C(c1ccc(N2CC(F)(F)C2)c(OCC2CC2)n1)N1CCC[C@H]1CO [Example 149, [6-Cyclopropylmethoxy-5-(3,3-difluoro-azetidin-1-yl)-pyridin-2-yl]-((S)-2-hydroxymethyl-pyrrolidin-1-yl)-methanone]	> 10000	174
CC(C)C[C@H](NC(=O)c1ccc(C2(O)COC2)c(OCC2CC2)n1)C(N)=O [Example 150, 6-Cyclopropylmethoxy-5-(3-hydroxy-oxetan-3-yl)-pyridine-2-carboxylic acid ((S)-1-carbamoyl-3-methyl-butyl)-amide]	> 10000	157
Cc1nc(C(C)(C)NC(=O)c2ccc(C3CCOC3)c(-c3cccc(Cl)c3)n2)no1 (centres unmarked) [Example 151, 6-(3-Chloro-phenyl)-5-(tetrahydro-furan-3-yl)-pyridine-2-carboxylic acid [1-methyl-1-(5-methyl-[1,2,4]oxadiazol-3-yl)-ethyl]-amide]	> 10000	351
COCCOCC(C)(C)NC(=O)c1ccc(N2CC(F)(F)C2)c(-c2cccc(Cl)c2)n1 [Example 152, 6-(3-Chloro-phenyl)-5-(3,3-difluoro-azetidin-1-yl)-pyridine-2-carboxylic acid [2-(2-methoxy-ethoxy)-1,1-dimethyl-ethyl]-amide]	> 10000	442
COCCOc1nc(C(=O)NC(C)(C)c2noc(C)n2)ccc1C1CC1 [Example 153, 5-Cyclopropyl-6-(2-methoxy-ethoxy)-pyridine-2-carboxylic acid [1-methyl-1-(5-methyl-[1,2,4]oxadiazol-3-yl)-ethyl]-amide]	> 10000	293
CC(C)(CCN1CCOCC1)NC(=O)c1ccc(C2CC2)c(OCC2CC2)n1 [Example 154, 5-Cyclopropyl-6-cyclopropylmethoxy-pyridine-2-carboxylic acid (1,1-dimethyl-3-morpholin-4-yl-propyl)-amide]	> 10000	150
CC(C)C[C@H](NC(=O)c1ccc(C2CC2)c(Cc2ccc(F)cc2)n1)C(N)=O [Example 155, 5-Cyclopropyl-6-(4-fluoro-benzyl)-pyridine-2-carboxylic acid ((S)-1-carbamoyl-3-methyl-butyl)-amide]	123	0.7
CC(C)(NC(=O)c1ccc(N2CC(F)(F)C2)c(-c2cccc(Cl)c2)n1)c1nccs1 [Example 156, 6-(3-Chloro-phenyl)-5-(3,3-difluoro-azetidin-1-yl)-pyridine-2-carboxylic acid (1-methyl-1-thiazol-2-yl-ethyl)-amide]	> 10000	334
COCCOC[C@H](CC1CC1)NC(=O)c1ccc(N2CC(F)(F)C2)c(OCC2CC2)n1 [Example 157, 6-Cyclopropylmethoxy-5-(3,3-difluoro-azetidin-1-yl)-pyridine-2-carboxylic acid [(S)-2-cyclopropyl-1-(2-methoxy-ethoxymethyl)-ethyl]-amide]	> 10000	27.4
COCCOc1nc(C(=O)N[C@@H](CC(C)C)C(N)=O)ccc1N1CC(F)(F)C1 [Example 158, 5-(3,3-Difluoro-azetidin-1-yl)-6-(2-methoxy-ethoxy)-pyridine-2-carboxylic acid ((S)-1-carbamoyl-3-methyl-butyl)-amide]	> 10000	22.9
Cc1nc(C(C)(C)NC(=O)c2ccc(C3(O)CCC3)c(OCC3CC3)n2)no1 [Example 160, 6-Cyclopropylmethoxy-5-(1-hydroxy-cyclobutyl)-pyridine-2-carboxylic acid [1-methyl-1-(5-methyl-[1,2,4]oxadiazol-3-yl)-ethyl]-amide]	> 10000	124
COCCOc1nc(C(=O)N[C@@H](CC2CC2)C(N)=O)ccc1C1CC1 [Example 161, 5-Cyclopropyl-6-(2-methoxy-ethoxy)-pyridine-2-carboxylic acid ((S)-1-carbamoyl-2-cyclopropyl-ethyl)-amide]	> 10000	124
NC(=O)[C@H](CC1CC1)NC(=O)c1ccc(N(CC(F)(F)F)CC(F)(F)F)c(OCC2CC2)n1 [Example 162, 5-[Bis-(2,2,2-trifluoro-ethyl)-amino]-6-cyclopropylmethoxy-pyridine-2-carboxylic acid ((S)-1-carbamoyl-2-cyclopropyl-ethyl)-amide]	674	54.4
Cc1nc([C@H](CC2CC2)NC(=O)c2ccc(C3CC3)c(OCC3CC3)n2)no1 [Example 163, 5-Cyclopropyl-6-cyclopropylmethoxy-pyridine-2-carboxylic acid [(S)-2-cyclopropyl-1-(5-methyl-[1,2,4]oxadiazol-3-yl)-ethyl]-amide]	> 10000	14.5
